Data published in PubChem BioAssay (NCI).
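Assay format: 96-well plates, 48-hour exposure. TGI marks complete inhibition of growth.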

Key:
Test in all cases: inhibition of tumour cell growth, NCI panel, 48 h
786-0 renal = test system: 786-0 renal
A498 renal = test system: A498 renal
A549 NSCLC = test system: A549 NSCLC
ACHN renal = test system: ACHN renal
CAKI-1 renal = test system: CAKI-1 renal
CCRF-CEM leukemia = test system: CCRF-CEM leukemia
COLO 205 colon = test system: COLO 205 colon
DLD-1 colon = test system: DLD-1 colon
DMS 114 small cell lung = test system: DMS 114 small cell lung
DMS 273 small cell lung = test system: DMS 273 small cell lung
EKVX NSCLC = test system: EKVX NSCLC
HCC-2998 colon = test system: HCC-2998 colon
HCT-116 colon = test system: HCT-116 colon
HCT-15 colon = test system: HCT-15 colon
HL-60(TB) leukemia = test system: HL-60(TB) leukemia
HOP-18 NSCLC = test system: HOP-18 NSCLC
HOP-62 NSCLC = test system: HOP-62 NSCLC
HOP-92 NSCLC = test system: HOP-92 NSCLC
HT29 colon = test system: HT29 colon
IGROV1 ovarian = test system: IGROV1 ovarian
K-562 leukemia = test system: K-562 leukemia
KM12 colon = test system: KM12 colon
KM20L2 colon = test system: KM20L2 colon
LOX IMVI melanoma = test system: LOX IMVI melanoma
LXFL 529 NSCLC = test system: LXFL 529 NSCLC
M14 melanoma = test system: M14 melanoma
M19-MEL melanoma = test system: M19-MEL melanoma
MALME-3M melanoma = test system: MALME-3M melanoma
MOLT-4 leukemia = test system: MOLT-4 leukemia
NCI-H226 lung = test system: NCI-H226 lung
NCI-H23 lung = test system: NCI-H23 lung
NCI-H460 lung = test system: NCI-H460 lung
NCI-H522 lung = test system: NCI-H522 lung
OVCAR-3 ovarian = test system: OVCAR-3 ovarian
OVCAR-4 ovarian = test system: OVCAR-4 ovarian
OVCAR-5 ovarian = test system: OVCAR-5 ovarian
OVCAR-8 ovarian = test system: OVCAR-8 ovarian
RPMI-8226 leukemia = test system: RPMI-8226 leukemia
RXF 393 renal = test system: RXF 393 renal
SF-268 CNS = test system: SF-268 CNS
SF-295 CNS = test system: SF-295 CNS
SF-539 CNS = test system: SF-539 CNS
SK-MEL-2 melanoma = test system: SK-MEL-2 melanoma
SK-MEL-28 melanoma = test system: SK-MEL-28 melanoma
SK-MEL-5 melanoma = test system: SK-MEL-5 melanoma
SK-OV-3 ovarian = test system: SK-OV-3 ovarian
SN12C renal = test system: SN12C renal
SNB-19 CNS = test system: SNB-19 CNS
SNB-75 CNS = test system: SNB-75 CNS
SNB-78 CNS = test system: SNB-78 CNS
SR leukemia = test system: SR leukemia
SW-620 colon = test system: SW-620 colon
TK-10 renal = test system: TK-10 renal
U251 CNS = test system: U251 CNS
UACC-257 melanoma = test system: UACC-257 melanoma
UACC-62 melanoma = test system: UACC-62 melanoma
UO-31 renal = test system: UO-31 renal
XF 498 CNS = test system: XF 498 CNS

Measured: TGI

CN(C)N=Nc1ccc(C(N)=O)cc1
> 100 µM: all assays above

CCn1c(C)nn2c(=O)c3ccccc3nc2c1=O
not listed: NCI-H226 lung | NCI-H522 lung | RXF 393 renal | SF-268 CNS | SN12C renal | SNB-19 CNS | SR leukemia | UO-31 renal
> 100 µM: all other assays above
